Experimental data published in patent US9750805B2, “Calcium flux agonists and methods therefor” (Nant Holdings IP, LLC, priority 2012, dated 2017).

Columns and labels:
[1] = tested on: TLR (TLR2, TLR4, TLR5, TLR9) and NOD (NOD1, NOD2) family members; experiment: IL-8 production with TLR and NOD ligands plus suboptimal calcium flux agonist (FIGS. 3A-3E); type: cell-based, human; settings: suboptimal doses: 20 nM thapsigargin, 316 nM A23187, 1 μM ionomycin, 10 μM cyclopiazonic acid, 31.6 μM DBHQ
Description: To investigate if that observation was also true for other pattern recognition receptors, and especially for TLR and NOD receptors and other ligands, the inventors tested numerous TLR and NOD receptors and various ligands.
The doses used in this experiment were 20 nM for thapsigargin, 316 nM for A23187, 1 μM for ionomycin, 10 μM for cyclopiazonic acid, and 31.6 μM for DBHQ.
Thus, a clear pattern of adjuvant activity of calcium flux agonists on the immune response, and especially on IL-8 production and NF-κB signaling is evident where the immune response is associated with a TLR- or NOD-mediated event.

S. aureus = experiment: Mouse model of S. aureus skin wound infection, pre-infection topical treatment; type: in vivo, C57BL/6 mice; settings: topical 2 mM formulation one day before infection; for bacterial burden at the infection site: day 7, vs vehicle controls; for wound size: days 3, 5 and 7 of infection, vs control treated animals, p<0.01
Description: To determine if calcium flux agonists such as the ionophores A23187 and ionomycin or the SERCA pump inhibitor thapsigargin can be used as a pre-treatment of bacterial infection, the inventors treated the shaved dorsal skin of 6-8 week old male C57B1/6 mice with vehicle alone, or formulations containing 2 mM A23187, ionomycin, or thapsigargin. One day later, the inventors superficially infected the dorsal skin of groups of 5 mice with 2×10^6 CFU of S. aureus and evaluated bacterial burden and wound size over the next week.
Topical delivery: A23187 and ionomycin and thapsigargin were reconstituted in dehydrated ethanol (Spectrum Chemicals, Gardena Calif.) to appropriate concentrations for subsequent formulations. In the pre-infection in vivo study, topical formulations consisted of 75% dehydrated ethanol (Spectrum Chemicals), 22% cyclohexane (Sigma-Aldrich), and 3% dimethyl sulfoxide (Sigma-Aldrich). Each topical formulation was delivered by submersing a circular piece of Whatman paper (Whatman, a division of GE Healthcare) with a 1.0 centimeter diameter and applying said circle to the skin of each recipient for 5 minutes.
Preparation of S. aureus for skin inoculation: Briefly, mid-logarithmic phase S. aureus bacteria was washed twice and resuspended in sterile saline (0.9%) at the noted concentrations. Mice: Male mice, 6-8 weeks old, on a C57BL/6 genetic background were used in all experiments (Jackson Laboratories, Bar Harbor, Me.).
Mouse model of S. aureus skin wound infection: To prepare animals for wound infection, the skin of the posterior upper back and neck of mice was shaved using #40 clippers. Next, three parallel 8 mm long full-thickness scalpel cuts (no. 11 blade) were made into the dermis. Resulting wounds were inoculated with 10 μl of S. aureus (2×10^8 CFUs per mL) with a micropipettor. Total lesion size (cm2) measurements were quantified by determining total pixel count from photographed animals using a millimeter ruler as a reference.
Quantification of in vivo S. aureus bacterial burden: To determine in vivo bacterial burden, infected mice were sacrificed on day 7 following infection and lesions were harvested surgically. Harvested tissues were homogenized and bacterial count was determined following plating on appropriate solid growth media.

[2] = tested on: κB-LUC THP-1 reporter cells; experiment: κB-LUC THP-1 reporter response to S. aureus conditioned/spent media (FIGS. 5B-5E); type: cell-based, human; settings: 1:100 conditioned media, 18 hours; 20 nM thapsigargin, 316 nM A23187, 1 μM ionomycin vs DMSO vehicle
Excerpt: Briefly, a culture of logarithmically dividing S. aureus was washed three times with RPMI 1640 (Cellgro). Concurrently, THP-1 κB-LUC THP-1's (THP-1 cells containing the stable integration of a NF-κB luciferase reporter gene) cultured in RPMI 1640 (Cellgro) supplemented with 10% FBS (Thermo HyClone, Waltham Mass.) and 1% penicillin-streptomycin-fungizone (Thermo HyClone) were washed three times with RPMI 1640 (Cellgro) and transferred to the bottom compartment of a 24-well 0.4 μm cutoff transwell plate (Corning) at a concentration of 1.2 million/mL. Dilutions of the washed S. aureus culture were then added to the top chamber of the transwell system at the indicated initial multiplicities of infection (MOI). The cells were incubated for 18 hours at 37° C. at which time aliquots of 60,000 cells were transferred to wells in a 384-well white bottom plate (Thermo). To evaluate luciferase gene expression, Bright-Glo Luciferase Assay Reagent (Promega) was added to each well and the plates were analyzed for luciferase activity using the Perkin Elmer TopCount NXT system (Perkin Elmer).
To determine whether the recognition of S. aureus-produced products could be further augmented through modulation of calcium flux, κB-LUC THP-1 reporter cells were incubated in the presence of a 1:100 dilution (V/V) of sterile filtered S. aureus conditioned (i.e. spent) or unused sterile media and treated with a suboptimal dose (20 nM) of thapsigargin or dimethyl sulfoxide (DMSO) vehicle control as described above. Briefly, conditioned media was produced by culturing S. aureus in RPMI with 10% fetal bovine serum overnight in a shaking incubator at 37° C. following which the bacteria were pelleted by centrifugation and the supernatants filter-sterilized using a 0.2 μm filter (VWR Radnor PA). The κB-LUC THP-1 cells were incubated in the presence of the conditioned/spent media for 18 hours prior to luciferase assay as described above.

THP-1 cells = experiment: Human IL-8 activity, dose response of calcium flux agonists without added TLR or NOD ligand; type: cell-based; settings: 24 hours, increasing concentrations, no added TLR or NOD ligand, FIGS. 1A-1C
Excerpt: The inventors performed several studies to identify the effect of calcium flux agonists on various components of an immune response, and particularly on the effect of calcium flux agonists on IL-8 production and activation of NF-κB signaling. […] The dose response is observed over relatively large windows for ionophores (e.g., A23187 and ionomycin) and over at least two orders of magnitude for SERCA inhibitors (e.g., thapsigargin).
More specifically, the dose response of ionophores on NF-κB and IL-8 is shown in FIGS. 1A-1B using a monocyte-derived cell line to treatment and A23187 and ionomycin in the absence of externally added TLR or NOD ligands. […] FIG. 1C depicts the dose response to thapsigargin on NF-κB and IL-8.
Human IL-8 activity: A titration of thapsigargin (A.G. Scientific, San Diego Calif.), ionomycin (Sigma-Aldrich, St. Louis Mo.), and the calcium ionophore A23187 (Sigma-Aldrich) was added to a 96-well plate (Thermo Matrix, Waltham Mass.) seeded with 150,000 THP-1 cells (ATCC TIB-202) grown in RPMI 1640 (Cellgro, Herndon VA) supplemented with 10% FBS (Thermo HyClone, Waltham Mass.) and 1% penicillin-streptomycin-fungizone (Thermo HyClone). 24 hours after addition, 25 uL of supernatant was removed and assayed for human IL-8 using the Meso Scale Discovery Human IL-8 Tissue Culture Kit (MSD, Rockville, Md.) per manufacturer's protocol. The results were analyzed using the Meso Scale Discovery SECTOR Imager 2400 and normalized to a titration of human IL-8 supplied by the MSD Kit.

SMILES	effect on IL-8 production with TLR and NOD ligands [1]	bacterial burden at the infection site (S. aureus)	wound size (S. aureus)	NF-κB reporter response to S. aureus conditioned/spent media [2]	IL-8 production (THP-1 cells)
CNc1ccc2oc(C[C@H]3O[C@@]4(CC[C@H]3C)O[C@H]([C@H](C)C(=O)c3ccc[nH]3)[C@H](C)C[C@H]4C)nc2c1C(=O)O [A23187, calcimycin]	synergistic effect	significantly fewer bacteria	significantly smaller wound sizes	significantly enhanced	significant increases
C[C@H](CCC(=O)O)C[C@H](C)C[C@H](C)C(=O)/C=C(\O)[C@H](C)C[C@H](C)C/C=C/[C@@H](C)[C@@H](O)[C@@H](C)[C@@H](O)C[C@@H]1CC[C@@](C)([C@H]2CC[C@@](C)([C@@H](C)O)O2)O1 [ionomycin]	synergistic effect	significantly fewer bacteria	significantly smaller wound sizes	significantly enhanced	significant increases
C/C=C(/C)C(=O)O[C@H]1C(C)=C2[C@H]([C@@H]1OC(=O)CCCCCCC)[C@@](C)(OC(C)=O)C[C@H](OC(=O)CCC)[C@@]1(O)[C@H]2OC(=O)[C@@]1(C)O [thapsigargin]	synergistic effect	significantly fewer bacteria	significantly smaller wound sizes	significantly enhanced	significant increases
